Here are results for 61 compounds from the METLIN SMRT retention time set (Domingo-Almenara et al. 2019).

Molecules are shown by their SMILES.

A short description of this series: gradient 5% acetonitrile 3 min, to 50% in 2 min, to 85% in 15 min, held 3 min, 100 µL/min. The note with it: column: Zorbax Extend-C18 2.1 x 50 mm; eluents: water / acetonitrile, 0.1% formic acid. An outline of the steps:
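Each retention time is based on an adduct peak selected computationally and verified by manual inspection. Measurements used HPLC–quadrupole time-of-flight mass spectrometry in positive and negative ionization mode on mixtures of ~100 pure standards. Chromatography ran on a Zorbax Extend-C18 column (2.1 × 50 mm, 1.8 μm) at 100 μL/min with water and acetonitrile, each containing 0.1% formic acid, and dead and dwell volumes of 40 μL and 900 μL.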
Consider `COc1ccc(Cl)cc1S(=O)(=O)N1CCCC(C(=O)Nc2ccccc2)C1` (stereo unspecified), for which the RP-LC retention time came to 967 s. For `O=C(NCc1cccc(Cl)c1)C1CCCN(c2nc3ccsc3c(=O)n2Cc2ccccc2)C1` (stereo unspecified), the RP-LC retention time turned out to be 988 s.

Consider `COCCNS(=O)(=O)c1cc(-c2cc(C(F)(F)F)on2)sc1C`, for which the RP-LC retention time was 982 s. With `Cc1sc(NC(=O)c2cccc(Br)c2)nc1-c1ccc2c(c1)NC(=O)C(C)O2` (stereo unspecified) the figure was 1040 s; with `CCc1nc2nccc(-c3ccc(OC)cc3F)n2n1`, 778 s; with `O=C(CSc1ncn[nH]1)Nc1ccc2c(c1)OCCO2`, 591 s.

`Cc1ccccc1CCNC(=O)c1cc2n(n1)CC(C)(C(=O)NCc1ccccc1)N(C)C2=O` (stereo unspecified): the RP-LC retention time was found to be 764 s.

As to `Cc1ccc(N2C(=O)c3ccc(C(=O)N4CCN(c5ccccc5F)CC4)cc3C2=O)cc1`, the RP-LC retention time was determined as 982 s.

As to `NC(=O)C1CCN(c2oc(-c3ccco3)nc2S(=O)(=O)c2ccccc2)CC1`, the RP-LC retention time came out at 652 s.

In turn, `O=C(Cn1cnc2c(sc3nc(-c4ccccc4)ccc32)c1=O)Nc1ccc2c(c1)OCO2` returned an RP-LC retention time of 974 s. Consider `CSCc1noc(Cn2ccc3ccn(CCN(C)C)c3c2=O)n1`, for which the RP-LC retention time came to 597 s. With `Cn1nc2c(c1NC(=O)c1ccc(Cl)s1)CCC2` the figure was 724 s. In the case of `COCCNC(=O)c1cc(C)nc2ccc(Br)cc12`, the RP-LC retention time is 636 s. The result for `O=C(NCCc1ccsc1)C(=O)Nc1ccccc1F` reads 878 s. With `CCCN1CCN(CCCNc2nc(-c3ccc(Cl)cc3)nc3ccccc23)CC1` the figure was 584 s; with `O=C(Cn1nc2c(N3CCCCCC3)nccn2c1=O)NCc1ccc2c(c1)OCO2`, 659 s.

On to `Cc1noc2nc(C)n(CC(=O)NCc3ccccc3F)c(=O)c12`, for which the RP-LC retention time came out at 710 s.

In turn, `CCNC(=O)N1CCCC(c2cccc(C(=O)NCc3ccc(C)o3)c2)C1` (stereo unspecified) returned an RP-LC retention time of 774 s. With `CCCNC(=O)Cn1c(=O)c2cccn2c2ccc(F)cc21` the figure was 729 s. For the compound `CC(C)C(=O)N1CCc2cc(-c3ccc(C(=O)NCCN4CCN(C)CC4)cc3)ccc21`, the RP-LC retention time turned out to be 608 s. The result for `O=C(Nc1cccc(Cl)c1)C1CCCN(C(=O)c2cc(-c3ccccn3)n[nH]2)C1` (stereo unspecified) reads 740 s; that for `Cc1noc(C)c1CNC(=O)c1ccc2c(c1)OCO2`, 683 s.

With `O=S(=O)(NCc1ccccc1F)c1ccccc1-c1nc(-c2cccc(F)c2)no1`, the RP-LC retention time was 1170 s. With `CCOC(=O)C1CCN(c2nnc(-c3nnc(CC)o3)c3ccccc23)CC1` the figure was 977 s; with `CC1CCCN(CC(=O)Nc2nc(-c3ccccc3)cs2)C1` (stereo unspecified), 655 s. With `Cc1nc([C@@H]2CN(C(=O)c3cccs3)C[C@H]2C(N)=O)n[nH]1` the figure was 562 s.

`COCCCNC(=O)C1c2ccccc2C(=O)N(C2CCCCC2)C12CCCCC2` (stereo unspecified): the RP-LC retention time is 946 s. The result for `CCOc1nc2ccccc2nc1N1CCCC(C(=O)NCc2ccccc2)C1` (stereo unspecified) reads 1090 s; that for `CN(C)CCn1nnc2cc(-c3noc(-c4ccccc4)n3)ccc21`, 651 s. `Cc1ccc(-c2nc(CCN(C)C(=O)NCc3ccccc3)no2)cc1` yielded an RP-LC retention time of 905 s.

`Cc1ccccc1-c1noc(CN2C(=O)COc3ccc(Cl)cc32)n1` returned an RP-LC retention time of 1120 s.

As to `CC1CCN(S(=O)(=O)c2cc(C(=O)Nc3ccc(F)c(Cl)c3)n(C)c2)CC1`, the RP-LC retention time was found to be 1170 s. With `CCCN1C(=O)c2cc(S(=O)(=O)Nc3ccc(F)cc3C)ccc2Oc2cccnc21` the figure was 1100 s; with `COc1cccc2c(Nc3ccc(S(N)(=O)=O)cc3)cc(C(=O)N3CCSCC3)nc12`, 595 s.

Take `COCCC(=O)N1CCCN(C2=NS(=O)(=O)C(c3ccccc3)=C2C)CC1`: the RP-LC retention time worked out at 669 s.

The compound `Cc1ccccc1Nc1c(-c2ccccc2F)nc2ccccn12` had an RP-LC retention time of 707 s.

In the case of `CC1CCCN(c2ccc(NC(=O)Cc3cccs3)c(C(=O)O)c2)C1` (stereo unspecified), the RP-LC retention time is 685 s. The result for `Cc1oc(C2CCC2)nc1C(=O)N1CCN(Cc2ccc3c(c2)OCO3)CC1` reads 583 s; that for `CCCNS(=O)(=O)c1cc2c(cc1C)CCN2C(C)=O`, 641 s. The result for `COc1ccc(OC)c(S(=O)(=O)NC(C)c2ccccc2)c1` (stereo unspecified) reads 845 s; that for `Cc1c(CCC(=O)NCC(=O)N[C@@H](C(=O)O)C(C)C)c(=O)oc2c(C)c(O)ccc12`, 636 s; that for `COc1cc2ccccc2cc1C(=O)Nc1nccs1`, 888 s.

In turn, `Cc1ccc(-c2cc3c4nnc(CCC(=O)N5CCN(C(=O)c6ccco6)CC5)n4ccn3n2)cc1C` came in with an RP-LC retention time of 759 s. The result for `Cc1cccc(N2CCN(C(=O)c3cc4c(=O)n(C)ccc4n3C)CC2)c1C` reads 818 s. With `COC1CCC12CCN(S(=O)(=O)c1ccc(C)c(F)c1)CC2` (stereo unspecified) the figure was 1090 s.

Compound `COc1ccc(CNC(=O)C2CCCN(c3nccnc3Sc3ccc(C)cc3)C2)c(OC)c1` (stereo unspecified) gave an RP-LC retention time of 792 s. The result for `COCCNc1ccc2nnc(C)n2n1` reads 590 s; that for `CCc1nc(-c2c(C)cc(C)nc2NC(=O)c2ccc(F)cc2)no1`, 812 s. With `CN(C)[C@@H]1CN(C(=O)c2cc(Cl)ccc2F)C[C@H]1CO` the figure was 571 s; with `COc1cccc(NC(=O)N2CCCC2c2nc(-c3cccc(Cl)c3)no2)c1` (stereo unspecified), 1050 s. With `COc1ccc2[nH]c(=O)c(CCC(=O)NCCN3CCCCCC3)cc2c1` the figure was 600 s.

Take `O=C(Nc1ccc(Nc2ccc(-n3cccn3)nn2)cc1)Nc1ccccc1Cl`: the RP-LC retention time amounted to 791 s. The compound `O=C(Nc1ccc(N2CCN(Cc3ccc(F)cc3)C2=O)nc1)c1ccsc1` displayed an RP-LC retention time of 787 s. For `CCN(C(=O)c1cccc(OC)c1)c1nc(-c2ccccc2)cs1`, the RP-LC retention time was 1270 s. With `O=C(Cc1ccc(Cl)cc1)N1CCc2nc[nH]c2C1` the figure was 590 s; with `COCC(=O)NC(Cc1ccccc1)c1nnc(N2CCN(C)CC2)o1` (stereo unspecified), 585 s; with `Cc1nc2cc(-c3noc(-c4cccc(Br)c4)n3)ccc2n(C)c1=O`, 1170 s. With `CSc1ccc(CNC(=O)CSc2nccc(N3CCN(c4cc(C)ccc4C)CC3)n2)cc1` the figure was 921 s.

Regarding `CCOC(=O)C1CCN(S(=O)(=O)c2cccc(-c3cn4ccccc4n3)c2)CC1`, the RP-LC retention time was determined as 676 s. Compound `CS(=O)(=O)N1CCC(C(=O)Nc2ccccc2)Oc2ccc(Cl)cc21` (stereo unspecified) yielded an RP-LC retention time of 887 s. In turn, `CCN(CC)CCNC(=O)C(C)n1c(=O)c(C(F)(F)F)nc2ccccc21` (stereo unspecified) displayed an RP-LC retention time of 669 s.
